This is an account of results in ChEMBL document CHEMBL1152560, “Substituted 2-arylbenzothiazoles as kinase inhibitors: hit-to-lead optimization” (Bioorg Med Chem, 2009).

Assay [1] concerns the target Protein kinase C beta type (Homo sapiens) (UniProt P05771). Kind of assay: Residual activity of PKCbeta1 at 1 uM by microplate scintillation counting.
Assay [2] concerns the target T1, MAP kinase-activated protein kinase 5 (Homo sapiens) (UniProt Q8IW41).
T1 sequence (whole entry): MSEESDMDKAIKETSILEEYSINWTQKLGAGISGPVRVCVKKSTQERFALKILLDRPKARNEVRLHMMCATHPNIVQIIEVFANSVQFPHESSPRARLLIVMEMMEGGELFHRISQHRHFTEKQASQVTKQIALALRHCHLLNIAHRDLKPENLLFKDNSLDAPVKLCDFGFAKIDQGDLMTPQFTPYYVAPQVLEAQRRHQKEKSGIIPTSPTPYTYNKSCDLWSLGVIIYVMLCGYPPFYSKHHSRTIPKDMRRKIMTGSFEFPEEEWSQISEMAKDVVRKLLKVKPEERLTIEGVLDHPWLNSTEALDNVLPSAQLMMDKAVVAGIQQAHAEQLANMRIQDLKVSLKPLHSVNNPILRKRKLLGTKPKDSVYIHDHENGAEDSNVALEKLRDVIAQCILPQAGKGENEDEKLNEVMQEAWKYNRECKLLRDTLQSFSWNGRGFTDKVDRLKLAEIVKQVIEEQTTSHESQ
Kind of assay: Residual activity of MAPKAPK5 at 0.1 uM by microplate scintillation counting.

Assay [3] addresses Interleukin-1 receptor-associated kinase 1 (Homo sapiens) (UniProt P51617). Kind of assay: Residual activity of IRAKI at 1 uM by microplate scintillation counting.
Assay [4] deals with Mitogen-activated protein kinase 10 (Homo sapiens) (UniProt P53779). Kind of assay: Residual activity of JNK3 at 1 uM by microplate scintillation counting.
Mitogen-activated protein kinase 10 (Homo sapiens), sequence (P53779 whole entry): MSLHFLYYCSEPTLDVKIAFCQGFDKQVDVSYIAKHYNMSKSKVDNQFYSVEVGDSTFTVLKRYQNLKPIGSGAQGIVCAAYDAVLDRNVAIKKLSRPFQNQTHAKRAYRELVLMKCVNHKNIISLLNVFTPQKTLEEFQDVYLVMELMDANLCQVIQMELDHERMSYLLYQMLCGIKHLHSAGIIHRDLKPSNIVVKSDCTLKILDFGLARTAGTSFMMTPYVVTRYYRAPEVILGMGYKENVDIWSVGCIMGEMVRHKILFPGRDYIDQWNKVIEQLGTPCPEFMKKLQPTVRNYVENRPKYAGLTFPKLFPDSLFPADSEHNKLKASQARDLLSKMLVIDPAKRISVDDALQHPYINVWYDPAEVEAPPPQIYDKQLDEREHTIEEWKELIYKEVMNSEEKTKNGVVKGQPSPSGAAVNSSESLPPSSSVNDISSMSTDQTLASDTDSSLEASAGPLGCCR
Assay [5] addresses Tyrosine-protein kinase FRK (Homo sapiens) (UniProt P42685). Kind of assay: Residual activity of FRK at 10 uM by microplate scintillation counting.
The target of assay [6] is T2, Activin receptor type-1 (Homo sapiens) (UniProt Q04771).
T2 sequence (whole entry): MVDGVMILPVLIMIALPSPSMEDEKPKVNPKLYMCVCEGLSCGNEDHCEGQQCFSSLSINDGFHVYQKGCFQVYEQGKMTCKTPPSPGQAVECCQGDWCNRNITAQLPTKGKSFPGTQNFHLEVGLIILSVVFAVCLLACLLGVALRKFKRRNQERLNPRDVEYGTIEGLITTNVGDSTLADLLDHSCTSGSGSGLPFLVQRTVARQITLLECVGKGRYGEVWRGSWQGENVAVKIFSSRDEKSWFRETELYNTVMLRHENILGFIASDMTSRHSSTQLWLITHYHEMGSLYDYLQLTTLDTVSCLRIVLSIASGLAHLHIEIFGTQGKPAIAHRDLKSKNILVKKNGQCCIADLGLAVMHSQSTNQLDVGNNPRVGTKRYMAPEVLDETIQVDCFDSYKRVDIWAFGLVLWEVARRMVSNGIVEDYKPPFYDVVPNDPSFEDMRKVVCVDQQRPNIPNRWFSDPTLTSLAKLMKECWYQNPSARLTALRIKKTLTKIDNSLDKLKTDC
Kind of assay: Residual activity of ACV-R1 at 1 uM by microplate scintillation counting.

Assay [7] addresses T3, Serine/threonine-protein kinase Sgk1 (Homo sapiens) (UniProt O00141).
T3 sequence (whole entry): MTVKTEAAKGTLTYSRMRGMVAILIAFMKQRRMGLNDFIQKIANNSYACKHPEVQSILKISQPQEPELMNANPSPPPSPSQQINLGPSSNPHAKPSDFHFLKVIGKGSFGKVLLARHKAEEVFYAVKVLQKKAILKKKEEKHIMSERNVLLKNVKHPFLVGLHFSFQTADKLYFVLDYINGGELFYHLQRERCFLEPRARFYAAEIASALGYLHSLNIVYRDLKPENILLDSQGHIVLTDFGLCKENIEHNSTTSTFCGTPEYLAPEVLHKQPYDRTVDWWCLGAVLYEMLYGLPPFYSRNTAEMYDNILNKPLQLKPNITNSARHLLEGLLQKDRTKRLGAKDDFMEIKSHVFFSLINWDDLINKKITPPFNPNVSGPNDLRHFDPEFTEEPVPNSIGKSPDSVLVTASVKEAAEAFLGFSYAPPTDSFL
Kind of assay: Residual activity of SGK1 at 10 uM by microplate scintillation counting.

The target in assay [8] is T4, Protein kinase C zeta type (Homo sapiens) (UniProt Q05513).
T4 sequence (whole entry): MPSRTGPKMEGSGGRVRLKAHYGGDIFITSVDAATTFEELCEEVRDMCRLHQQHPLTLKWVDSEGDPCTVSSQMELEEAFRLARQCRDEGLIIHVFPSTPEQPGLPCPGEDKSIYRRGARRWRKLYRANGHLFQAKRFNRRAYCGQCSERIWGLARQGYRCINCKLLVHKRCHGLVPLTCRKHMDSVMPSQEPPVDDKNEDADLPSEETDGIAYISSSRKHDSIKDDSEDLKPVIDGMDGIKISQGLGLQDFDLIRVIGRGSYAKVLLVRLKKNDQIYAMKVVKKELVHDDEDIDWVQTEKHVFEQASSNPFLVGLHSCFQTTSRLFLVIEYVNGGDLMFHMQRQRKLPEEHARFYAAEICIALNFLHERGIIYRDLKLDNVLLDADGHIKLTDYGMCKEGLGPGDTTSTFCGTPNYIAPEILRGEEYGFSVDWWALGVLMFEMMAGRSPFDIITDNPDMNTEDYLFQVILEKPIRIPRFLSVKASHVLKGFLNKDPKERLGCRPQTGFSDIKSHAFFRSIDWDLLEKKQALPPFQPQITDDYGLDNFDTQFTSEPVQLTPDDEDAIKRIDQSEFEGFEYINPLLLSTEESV
Kind of assay: Residual activity of PKCzeta at 0.1 uM by microplate scintillation counting.

Assay [9] addresses Ribosomal protein S6 kinase alpha-5 (Homo sapiens) (UniProt O75582). Kind of assay: Residual activity of RPS6KA5 at 0.1 uM by microplate scintillation counting.

Protein kinase C beta type (Homo sapiens), sequence (P05771 2-671 limits assumed): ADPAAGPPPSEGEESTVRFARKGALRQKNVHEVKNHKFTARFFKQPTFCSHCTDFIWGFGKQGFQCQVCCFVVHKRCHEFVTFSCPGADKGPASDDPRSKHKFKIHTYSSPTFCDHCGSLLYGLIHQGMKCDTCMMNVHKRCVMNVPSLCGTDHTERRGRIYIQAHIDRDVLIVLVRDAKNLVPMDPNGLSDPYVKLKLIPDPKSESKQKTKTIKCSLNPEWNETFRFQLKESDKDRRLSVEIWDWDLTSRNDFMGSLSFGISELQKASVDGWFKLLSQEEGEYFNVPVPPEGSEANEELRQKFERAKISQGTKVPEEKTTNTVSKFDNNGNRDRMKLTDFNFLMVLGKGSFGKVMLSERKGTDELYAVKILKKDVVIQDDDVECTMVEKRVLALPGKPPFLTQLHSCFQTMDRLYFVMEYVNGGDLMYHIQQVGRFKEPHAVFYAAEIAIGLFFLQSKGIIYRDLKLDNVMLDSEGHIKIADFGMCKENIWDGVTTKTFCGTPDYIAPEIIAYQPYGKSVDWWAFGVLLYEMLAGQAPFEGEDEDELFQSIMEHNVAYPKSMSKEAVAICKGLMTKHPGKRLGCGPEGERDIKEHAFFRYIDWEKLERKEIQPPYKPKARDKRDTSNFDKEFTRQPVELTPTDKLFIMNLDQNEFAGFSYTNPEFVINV
Ribosomal protein S6 kinase alpha-5 (Homo sapiens), sequence (O75582 whole entry, looked up): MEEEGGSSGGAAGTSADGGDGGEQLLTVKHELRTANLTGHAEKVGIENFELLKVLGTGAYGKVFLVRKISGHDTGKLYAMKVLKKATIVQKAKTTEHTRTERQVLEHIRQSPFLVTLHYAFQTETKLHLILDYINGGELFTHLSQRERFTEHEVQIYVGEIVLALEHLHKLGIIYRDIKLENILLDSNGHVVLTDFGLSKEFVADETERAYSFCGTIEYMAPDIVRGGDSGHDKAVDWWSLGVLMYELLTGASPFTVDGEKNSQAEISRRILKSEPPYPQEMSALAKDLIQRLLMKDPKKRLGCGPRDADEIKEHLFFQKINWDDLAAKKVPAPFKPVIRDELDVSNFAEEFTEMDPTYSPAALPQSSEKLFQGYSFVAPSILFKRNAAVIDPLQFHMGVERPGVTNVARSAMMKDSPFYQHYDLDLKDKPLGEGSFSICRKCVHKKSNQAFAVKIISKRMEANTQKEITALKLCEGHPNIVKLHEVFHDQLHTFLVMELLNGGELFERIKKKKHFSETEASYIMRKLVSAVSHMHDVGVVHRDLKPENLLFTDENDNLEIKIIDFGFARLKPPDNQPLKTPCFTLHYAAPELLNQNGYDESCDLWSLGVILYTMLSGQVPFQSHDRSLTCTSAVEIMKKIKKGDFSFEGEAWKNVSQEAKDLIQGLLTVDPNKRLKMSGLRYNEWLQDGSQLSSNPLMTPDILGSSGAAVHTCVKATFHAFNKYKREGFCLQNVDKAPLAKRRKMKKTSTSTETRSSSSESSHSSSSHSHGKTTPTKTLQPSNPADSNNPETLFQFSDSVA
Interleukin-1 receptor-associated kinase 1 (Homo sapiens), sequence (P51617 whole entry, looked up): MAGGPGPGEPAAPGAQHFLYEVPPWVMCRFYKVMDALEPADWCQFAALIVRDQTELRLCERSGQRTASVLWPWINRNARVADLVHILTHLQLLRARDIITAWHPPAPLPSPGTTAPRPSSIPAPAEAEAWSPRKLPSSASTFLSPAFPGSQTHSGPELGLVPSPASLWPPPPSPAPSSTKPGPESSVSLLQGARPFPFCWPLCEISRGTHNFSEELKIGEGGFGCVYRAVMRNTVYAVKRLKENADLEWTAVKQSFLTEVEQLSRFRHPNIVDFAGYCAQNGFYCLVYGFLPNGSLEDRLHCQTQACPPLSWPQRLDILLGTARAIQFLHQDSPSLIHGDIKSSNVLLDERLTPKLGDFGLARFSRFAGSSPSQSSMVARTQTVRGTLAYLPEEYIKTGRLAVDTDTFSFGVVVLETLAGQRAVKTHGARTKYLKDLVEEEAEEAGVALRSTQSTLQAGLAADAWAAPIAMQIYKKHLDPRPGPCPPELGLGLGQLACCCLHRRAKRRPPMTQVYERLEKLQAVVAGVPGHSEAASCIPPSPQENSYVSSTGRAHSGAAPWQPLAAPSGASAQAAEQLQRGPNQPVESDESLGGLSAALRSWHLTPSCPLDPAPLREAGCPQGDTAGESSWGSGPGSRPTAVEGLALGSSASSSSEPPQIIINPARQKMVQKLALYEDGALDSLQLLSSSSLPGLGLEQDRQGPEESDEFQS
Tyrosine-protein kinase FRK (Homo sapiens), sequence (P42685 whole entry): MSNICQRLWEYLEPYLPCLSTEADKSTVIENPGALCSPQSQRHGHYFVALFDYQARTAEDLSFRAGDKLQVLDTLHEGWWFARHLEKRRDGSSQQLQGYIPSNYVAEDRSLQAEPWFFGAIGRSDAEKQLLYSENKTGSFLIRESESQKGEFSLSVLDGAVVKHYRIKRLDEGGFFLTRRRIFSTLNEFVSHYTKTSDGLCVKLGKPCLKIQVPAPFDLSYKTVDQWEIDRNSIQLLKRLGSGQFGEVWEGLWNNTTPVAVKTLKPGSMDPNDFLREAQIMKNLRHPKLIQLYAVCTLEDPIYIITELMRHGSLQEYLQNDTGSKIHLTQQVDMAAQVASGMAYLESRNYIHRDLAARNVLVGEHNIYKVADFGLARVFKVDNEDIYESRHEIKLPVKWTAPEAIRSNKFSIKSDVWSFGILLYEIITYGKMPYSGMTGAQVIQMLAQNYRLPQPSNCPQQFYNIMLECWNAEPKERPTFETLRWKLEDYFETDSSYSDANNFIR

With `COc1cc2c(Oc3ccc(-c4nc5ccccc5s4)cc3)ncnc2cc1OCCCN1CCN(C)CC1`, the residual activity was 108% in assay [1]; 124% in [2]; 74% in assay [3]; 106% in [4]; 61% in assay [5]; 89% in assay [6]. In addition, the residual activity was determined as 0% in assay [7], 85% in [8] and 89% in assay [9].

Regarding `COc1cc2c(Oc3ccc(-c4nc5ccccc5s4)cc3)ncnc2cc1OCCCN1CCCC1`, the residual activity was determined as 105% in assay [1]; 97% in [2]; 58% in assay [3]; 97% in assay [4]; 71% in assay [5]; 85% in assay [6]. Besides, the residual activity in assay [7] was determined as 92%; in assay [8], 107%; in assay [9], 96%.

For the compound `COc1cc2c(Oc3ccc(-c4nc5ccccc5s4)cc3F)ncnc2cc1OCCCN1CCN(C)CC1`, the residual activity came to 103% in assay [1]; 95% in assay [2]; 93% in [3]; 101% in assay [4]; 24% in assay [5]; 93% in assay [6]. Moreover, the figures for the residual activity in assay [7], in assay [8] and in assay [9] were 117%, 97% and 86%, respectively.
